From ChEMBL document CHEMBL5696443 (Clin Cancer Res, 2016)
Calls of active or inactive are those of the source. No cut-off for these calls is given here.

Columns and labels:
[1] = tested on: EML4-ALK (Homo sapiens), Q9UM73+Q9HC35 [C1156Y]; details: BaF3, dose 500.0 nmol/L, time 3-5 weeks
[2] = target: RAF proto-oncogene serine/threonine-protein kinase (Homo sapiens) (UniProt P04049); experiment: Inhibition of human RAF1 at 1 uM using MEK1 as substrate in presence of [gamma33P]-ATP by HotSpot assay relative to control
Insulin receptor = Insulin receptor (Homo sapiens, UniProt P06213); experiment: Inhibition of human INSR using poly (Glu, Tyr)4:1 as substrate in presence of [gamma33P]-ATP by HotSpot assay
[3] = target: Serine/threonine-protein kinase Nek3 (Homo sapiens) (UniProt P51956); experiment: Inhibition of human NEK3 at 1 uM using MBP as substrate in presence of [gamma33P]-ATP by HotSpot assay relative to control
[4] = target: Dual specificity protein kinase CLK3 (Homo sapiens) (UniProt P49761); experiment: Inhibition of human CLK3 at 1 uM using MBP as substrate in presence of [gamma33P]-ATP by HotSpot assay relative to control
[5] = target: Serine/threonine-protein kinase pim-1 (Homo sapiens) (UniProt P11309); experiment: Inhibition of human PIM1 at 1 uM using RSRHSSYPAGT as substrate in presence of [gamma33P]-ATP by HotSpot assay relative to control
[6] = tested on: EML4-ALK (Homo sapiens), Q9UM73+Q9HC35 [UNDEFINED MUTATION]; details: BaF3, dose 500.0 nmol/L, time 3-5 weeks
[7] = target: Casein kinase I isoform gamma-3 (Homo sapiens) (UniProt Q9Y6M4); experiment: Inhibition of human CSNK1G3 at 1 uM using KRRRAL[pS]VASLPGL as substrate in presence of [gamma33P]-ATP by HotSpot assay relative to control
Chain of Casein kinase I isoform gamma-3 (Homo sapiens) (Q9Y6M4 whole entry, looked up, canonical isoform): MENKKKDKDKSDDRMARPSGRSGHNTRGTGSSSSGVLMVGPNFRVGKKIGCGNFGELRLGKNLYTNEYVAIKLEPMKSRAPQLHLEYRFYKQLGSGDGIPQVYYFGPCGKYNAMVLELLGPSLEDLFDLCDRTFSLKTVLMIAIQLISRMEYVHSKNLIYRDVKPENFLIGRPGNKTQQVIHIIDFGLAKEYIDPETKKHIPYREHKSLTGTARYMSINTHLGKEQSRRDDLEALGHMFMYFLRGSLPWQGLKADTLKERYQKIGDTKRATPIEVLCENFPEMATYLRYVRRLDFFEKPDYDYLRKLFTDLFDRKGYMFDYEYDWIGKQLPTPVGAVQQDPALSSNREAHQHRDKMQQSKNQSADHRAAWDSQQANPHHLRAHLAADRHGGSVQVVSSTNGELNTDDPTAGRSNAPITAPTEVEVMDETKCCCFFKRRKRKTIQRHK

[8] = target: Cytoplasmic tyrosine-protein kinase BMX (Homo sapiens) (UniProt P51813); experiment: Inhibition of human BMX at 1 uM using poly (Glu, Tyr)4:1 as substrate in presence of [gamma33P]-ATP by HotSpot assay relative to control
[9] = target: Serine/threonine-protein kinase PAK 1 (Homo sapiens) (UniProt Q13153); experiment: Inhibition of human PAK1 at 1 uM using RRRLSFAEPG as substrate in presence of [gamma33P]-ATP by HotSpot assay relative to control
[10] = target: Ribosomal protein S6 kinase alpha-1 (Homo sapiens, UniProt Q15418); experiment: Inhibition of human RPS6KA1 using KKLNRTLSVA as substrate in presence of [gamma33P]-ATP by HotSpot assay
[11] = target: Vascular endothelial growth factor receptor 1 (Homo sapiens) (UniProt P17948); experiment: Inhibition of human FLT1 at 1 uM using poly (Glu, Tyr)4:1 as substrate in presence of [gamma33P]-ATP by HotSpot assay relative to control
Chain of Vascular endothelial growth factor receptor 1 (Homo sapiens) (P17948 whole entry): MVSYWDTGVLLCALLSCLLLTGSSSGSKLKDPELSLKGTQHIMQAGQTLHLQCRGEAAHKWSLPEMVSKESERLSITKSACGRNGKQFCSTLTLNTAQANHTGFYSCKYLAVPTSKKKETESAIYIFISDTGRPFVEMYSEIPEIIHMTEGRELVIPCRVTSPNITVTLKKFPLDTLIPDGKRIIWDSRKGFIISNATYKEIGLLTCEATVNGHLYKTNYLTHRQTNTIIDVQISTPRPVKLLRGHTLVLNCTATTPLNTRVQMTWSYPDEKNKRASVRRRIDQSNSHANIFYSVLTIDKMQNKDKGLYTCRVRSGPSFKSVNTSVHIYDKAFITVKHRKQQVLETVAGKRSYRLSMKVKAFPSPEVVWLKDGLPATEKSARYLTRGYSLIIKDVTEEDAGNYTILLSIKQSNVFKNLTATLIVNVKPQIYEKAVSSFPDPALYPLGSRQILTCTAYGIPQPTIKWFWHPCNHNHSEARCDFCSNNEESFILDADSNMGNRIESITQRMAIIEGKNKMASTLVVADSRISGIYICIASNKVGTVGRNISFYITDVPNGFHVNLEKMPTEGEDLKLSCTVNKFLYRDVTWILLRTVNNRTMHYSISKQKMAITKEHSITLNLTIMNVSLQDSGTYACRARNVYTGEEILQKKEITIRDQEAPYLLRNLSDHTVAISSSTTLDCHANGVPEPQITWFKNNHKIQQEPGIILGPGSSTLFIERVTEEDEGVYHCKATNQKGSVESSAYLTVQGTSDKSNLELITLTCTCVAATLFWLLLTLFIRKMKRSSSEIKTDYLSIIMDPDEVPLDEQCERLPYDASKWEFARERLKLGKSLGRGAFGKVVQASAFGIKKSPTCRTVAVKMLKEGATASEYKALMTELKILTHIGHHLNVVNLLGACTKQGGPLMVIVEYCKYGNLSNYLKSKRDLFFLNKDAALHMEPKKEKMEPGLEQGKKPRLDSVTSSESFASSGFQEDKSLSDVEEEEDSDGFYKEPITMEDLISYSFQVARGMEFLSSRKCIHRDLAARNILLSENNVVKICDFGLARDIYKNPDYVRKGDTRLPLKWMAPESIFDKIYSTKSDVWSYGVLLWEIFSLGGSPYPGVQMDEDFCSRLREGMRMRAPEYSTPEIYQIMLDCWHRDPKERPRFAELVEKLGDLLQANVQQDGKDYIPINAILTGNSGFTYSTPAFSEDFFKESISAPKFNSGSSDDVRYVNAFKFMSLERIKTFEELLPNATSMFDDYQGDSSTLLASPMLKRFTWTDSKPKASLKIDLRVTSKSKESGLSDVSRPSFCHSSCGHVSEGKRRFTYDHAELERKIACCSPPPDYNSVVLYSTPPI

[12] = target: Tyrosine-protein kinase Fyn (Homo sapiens, UniProt P06241); experiment: Inhibition of human FYN using poly (Glu, Tyr)4:1 as substrate in presence of [gamma33P]-ATP by HotSpot assay
[13] = target: SRSF protein kinase 3 (Homo sapiens) (UniProt Q9UPE1); experiment: Inhibition of human SRPK3 at 1 uM using GRSRSRSRSR as substrate in presence of [gamma33P]-ATP by HotSpot assay relative to control
[14] = target: Myotonin-protein kinase (Homo sapiens) (UniProt Q09013); experiment: Inhibition of human DMPK at 1 uM using KKRNRRLSVA as substrate in presence of [gamma33P]-ATP by HotSpot assay relative to control
Chain of Myotonin-protein kinase (Homo sapiens) (Q09013 whole entry): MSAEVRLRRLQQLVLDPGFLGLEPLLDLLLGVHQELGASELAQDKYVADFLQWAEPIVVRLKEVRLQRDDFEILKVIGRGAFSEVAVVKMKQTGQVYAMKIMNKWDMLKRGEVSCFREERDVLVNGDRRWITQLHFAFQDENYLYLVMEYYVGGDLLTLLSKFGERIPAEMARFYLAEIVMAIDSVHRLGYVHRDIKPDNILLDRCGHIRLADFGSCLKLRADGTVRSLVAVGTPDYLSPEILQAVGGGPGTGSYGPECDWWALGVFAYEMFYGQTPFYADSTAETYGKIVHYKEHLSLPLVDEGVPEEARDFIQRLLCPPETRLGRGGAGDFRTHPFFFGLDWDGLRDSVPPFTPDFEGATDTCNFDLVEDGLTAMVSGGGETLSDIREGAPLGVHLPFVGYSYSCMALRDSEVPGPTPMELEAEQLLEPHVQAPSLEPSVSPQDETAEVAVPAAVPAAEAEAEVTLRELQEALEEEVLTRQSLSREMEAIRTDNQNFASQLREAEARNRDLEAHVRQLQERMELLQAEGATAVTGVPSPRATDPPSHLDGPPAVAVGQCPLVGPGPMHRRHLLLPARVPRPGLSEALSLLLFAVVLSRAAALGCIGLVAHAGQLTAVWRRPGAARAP

KARPAS-299 = details: time 72 hrs
[15] = Average plasma concentration in CB-17/SCID mouse implanted with mouse BaF3 cells expressing EML4-ALK G1202R mutant at 25 mg/kg, po administered once daily for 7 days by LC-MS/MS analysis; format: ADME, organism-based; details: in vivo, 168 h, time 7 day
[16] = target: Tyrosine-protein kinase TXK (Homo sapiens) (UniProt P42681); experiment: Inhibition of human TXK at 1 uM using EAIYAAPFAKKK as substrate in presence of [gamma33P]-ATP by HotSpot assay relative to control
[17] = target: Cyclin-dependent kinase 1/cyclin B1 (Homo sapiens) (UniProt P06493+P14635); experiment: Inhibition of human CDK1/CyclinB at 1 uM using RB protein as substrate in presence of [gamma33P]-ATP by HotSpot assay relative to control; format: protein-complex assay
[18] = target: Tyrosine-protein kinase Lyn (Homo sapiens, UniProt P07948); experiment: Inhibition of human LYNB at 1 uM using poly (Glu, Tyr)4:1 as substrate in presence of [gamma33P]-ATP by HotSpot assay relative to control
[19] = target: Tyrosine-protein kinase JAK1 (Homo sapiens) (UniProt P23458); experiment: Inhibition of human JAK1 at 1 uM using MBP as substrate in presence of [gamma33P]-ATP by HotSpot assay relative to control
[20] = tested on: EML4-ALK (Homo sapiens), Q9UM73+Q9HC35 [S1206Y]; details: BaF3, time 3-5 weeks
[21] = target: Protein kinase C eta type (Homo sapiens) (UniProt P24723); experiment: Inhibition of human PKCeta at 1 uM using ERMRPRKRQGSVRRRV as substrate in presence of [gamma33P]-ATP by HotSpot assay relative to control
[22] = target: Receptor tyrosine-protein kinase erbB-4 (Homo sapiens, UniProt Q15303); experiment: Inhibition of human ERBB4 using poly (Glu, Tyr)4:1 as substrate in presence of [gamma33P]-ATP by HotSpot assay
[23] = target: Homeodomain-interacting protein kinase 2 (Homo sapiens) (UniProt Q9H2X6); experiment: Inhibition of human HIPK2 at 1 uM using MBP as substrate in presence of [gamma33P]-ATP by HotSpot assay relative to control
[24] = target: Myosin light chain kinase, smooth muscle (Homo sapiens) (UniProt Q15746); experiment: Inhibition of human MYLK at 1 uM using KKLNRTLSFAEPG as substrate in presence of [gamma33P]-ATP by HotSpot assay relative to control
[25] = target: High affinity nerve growth factor receptor (Homo sapiens) (UniProt P04629); experiment: Inhibition of human NTRK1 at 1 uM using poly (Glu, Tyr)4:1 as substrate in presence of [gamma33P]-ATP by HotSpot assay relative to control
[26] = target: Tyrosine-protein kinase Fer (Homo sapiens, UniProt P16591); experiment: Inhibition of human FER using poly (Glu, Tyr)4:1 as substrate in presence of [gamma33P]-ATP by HotSpot assay
[27] = tested on: EML4-ALK (Homo sapiens), Q9UM73+Q9HC35 [L1152R]; details: BaF3, time 3-5 weeks

Chain of EML4-ALK (Homo sapiens), Q9UM73+Q9HC35 [C1156Y] (Q9UM73 whole entry C1156Y): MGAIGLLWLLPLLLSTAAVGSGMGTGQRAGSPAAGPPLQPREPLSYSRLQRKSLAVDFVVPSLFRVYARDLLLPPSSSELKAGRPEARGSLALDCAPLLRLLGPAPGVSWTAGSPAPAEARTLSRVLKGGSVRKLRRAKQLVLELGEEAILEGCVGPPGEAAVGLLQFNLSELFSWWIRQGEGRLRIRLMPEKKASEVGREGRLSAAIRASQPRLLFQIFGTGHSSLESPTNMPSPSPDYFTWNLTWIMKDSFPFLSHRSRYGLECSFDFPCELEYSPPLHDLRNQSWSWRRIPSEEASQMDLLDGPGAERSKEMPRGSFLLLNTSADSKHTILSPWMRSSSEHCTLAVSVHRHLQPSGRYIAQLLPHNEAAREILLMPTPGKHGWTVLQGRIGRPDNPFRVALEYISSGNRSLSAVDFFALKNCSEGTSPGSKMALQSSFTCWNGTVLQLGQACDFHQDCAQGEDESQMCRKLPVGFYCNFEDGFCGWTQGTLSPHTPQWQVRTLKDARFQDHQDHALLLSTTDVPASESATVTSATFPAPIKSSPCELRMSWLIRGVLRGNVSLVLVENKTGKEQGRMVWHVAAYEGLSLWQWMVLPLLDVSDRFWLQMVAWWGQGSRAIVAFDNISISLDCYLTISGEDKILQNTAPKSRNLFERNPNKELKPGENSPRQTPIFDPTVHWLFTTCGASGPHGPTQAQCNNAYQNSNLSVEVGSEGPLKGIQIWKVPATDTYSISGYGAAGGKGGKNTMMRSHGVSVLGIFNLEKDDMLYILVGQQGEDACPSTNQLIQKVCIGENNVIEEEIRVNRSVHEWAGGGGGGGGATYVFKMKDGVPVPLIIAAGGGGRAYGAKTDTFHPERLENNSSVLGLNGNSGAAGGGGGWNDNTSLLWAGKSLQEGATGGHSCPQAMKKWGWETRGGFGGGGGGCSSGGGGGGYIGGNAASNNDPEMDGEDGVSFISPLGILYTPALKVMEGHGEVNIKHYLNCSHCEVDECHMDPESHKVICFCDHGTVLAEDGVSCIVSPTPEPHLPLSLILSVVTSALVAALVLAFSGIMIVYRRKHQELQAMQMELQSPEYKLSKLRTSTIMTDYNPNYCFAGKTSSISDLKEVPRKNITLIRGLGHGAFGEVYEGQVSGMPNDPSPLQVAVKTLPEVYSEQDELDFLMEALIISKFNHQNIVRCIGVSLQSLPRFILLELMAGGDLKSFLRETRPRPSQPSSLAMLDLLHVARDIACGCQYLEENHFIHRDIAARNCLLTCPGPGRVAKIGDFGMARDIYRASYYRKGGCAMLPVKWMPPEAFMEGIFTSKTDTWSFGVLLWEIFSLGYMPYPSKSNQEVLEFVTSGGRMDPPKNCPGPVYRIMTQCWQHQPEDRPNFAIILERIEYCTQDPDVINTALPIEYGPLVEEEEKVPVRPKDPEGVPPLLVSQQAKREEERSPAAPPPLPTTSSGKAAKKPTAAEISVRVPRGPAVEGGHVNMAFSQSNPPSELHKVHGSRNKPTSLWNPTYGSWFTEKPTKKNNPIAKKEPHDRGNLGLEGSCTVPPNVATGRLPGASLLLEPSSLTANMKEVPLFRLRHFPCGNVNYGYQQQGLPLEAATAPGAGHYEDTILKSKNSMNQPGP
Chain of EML4-ALK (Homo sapiens), Q9UM73+Q9HC35 [C1156Y] (Q9HC35 whole entry partner): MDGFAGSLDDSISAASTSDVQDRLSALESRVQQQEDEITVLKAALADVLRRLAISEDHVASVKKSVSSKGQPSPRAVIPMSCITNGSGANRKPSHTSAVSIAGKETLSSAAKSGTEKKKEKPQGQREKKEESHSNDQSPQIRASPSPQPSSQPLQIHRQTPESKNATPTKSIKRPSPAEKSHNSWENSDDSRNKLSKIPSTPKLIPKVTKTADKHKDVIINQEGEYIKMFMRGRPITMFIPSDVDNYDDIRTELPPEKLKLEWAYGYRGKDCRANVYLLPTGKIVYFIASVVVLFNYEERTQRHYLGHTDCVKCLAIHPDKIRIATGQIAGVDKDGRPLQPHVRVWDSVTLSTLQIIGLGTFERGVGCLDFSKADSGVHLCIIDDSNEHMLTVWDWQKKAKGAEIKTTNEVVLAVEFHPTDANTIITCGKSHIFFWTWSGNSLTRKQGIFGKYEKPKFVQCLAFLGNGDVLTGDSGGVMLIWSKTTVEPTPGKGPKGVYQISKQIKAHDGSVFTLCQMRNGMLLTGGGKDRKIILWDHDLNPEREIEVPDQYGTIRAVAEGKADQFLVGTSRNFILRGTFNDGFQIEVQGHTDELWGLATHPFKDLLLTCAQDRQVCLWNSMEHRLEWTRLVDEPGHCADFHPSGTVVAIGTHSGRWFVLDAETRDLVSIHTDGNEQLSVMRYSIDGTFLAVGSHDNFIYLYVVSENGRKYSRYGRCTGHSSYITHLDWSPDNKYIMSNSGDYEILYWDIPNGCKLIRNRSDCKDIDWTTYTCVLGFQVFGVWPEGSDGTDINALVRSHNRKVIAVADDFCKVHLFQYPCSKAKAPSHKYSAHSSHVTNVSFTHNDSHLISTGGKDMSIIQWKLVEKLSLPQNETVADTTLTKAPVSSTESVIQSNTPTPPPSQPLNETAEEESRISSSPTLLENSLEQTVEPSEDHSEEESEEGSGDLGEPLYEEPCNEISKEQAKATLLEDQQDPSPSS

With COc1cc(N2CCC(N3CCN(C)CC3)CC2)ccc1Nc1ncc(Cl)c(Nc2ccccc2P(C)(C)=O)n1 [BRIGATINIB] as the compound, how does the inhibition [1] read?
Its inhibition is “Active”.

What about the inhibition [2] of the same compound?
The inhibition was less than 90%.

What about the IC50 (Insulin receptor) of the same compound?
The IC50 was 160 nM.

What about the inhibition [3] of the same compound?
Its inhibition is less than 90%.

What about the inhibition [4] of the same compound?
Its inhibition is less than 90%.

What about the inhibition [5] of the same compound?
The inhibition was less than 90%.

And the inhibition [6]?
Its inhibition is “Active”.

What about the inhibition [7] of the same compound?
The inhibition was less than 90%.

What about the inhibition [8] of the same compound?
The inhibition was less than 90%.

And the inhibition [9]?
The inhibition was less than 90%.

What about the IC50 [10] of the same compound?
Its IC50 is 30 nM.

What about the inhibition [11] of the same compound?
The inhibition was less than 90%.

And the IC50 [12]?
Its IC50 is 198 nM.

And the inhibition [13]?
Its inhibition is less than 90%.

And the inhibition [14]?
Its inhibition is less than 90%.

What about the GI50 (KARPAS-299) of the same compound?
Its GI50 is 10 nM.

And the Cave [15]?
The Cave was 2546 nM.

And the inhibition [16]?
Its inhibition is less than 90%.

What about the inhibition [17] of the same compound?
Its inhibition is less than 90%.

And the inhibition [18]?
The inhibition was less than 90%.

And the inhibition [19]?
Its inhibition is less than 90%.

And the IC90 [20]?
The IC90 was 109 nM.

And the inhibition [21]?
The inhibition was less than 90%.

And the IC50 [22]?
Its IC50 is 27 nM.

What about the inhibition [23] of the same compound?
Its inhibition is less than 90%.

And the inhibition [24]?
Its inhibition is less than 90%.

What about the inhibition [25] of the same compound?
Its inhibition is less than 90%.

What about the IC50 [26] of the same compound?
Its IC50 is 1.3 nM.

What about the IC90 [27] of the same compound?
Its IC90 is 34 nM.
